How the values were obtained:
[1] = tested on: IL-12 stimulated STAT4 phosphorylation on Tyr693 (JAK2/TYK2); assay: JAK2/TYK2 cellular target modulation: IL-12 stimulated phospho-STAT4 in human PBMC; type: cell-based; details: IL-12 1.7 ng/ml, read-out: IL12-STAT4 IC50
Description: (§1) Target modulation was based upon the ability of a compound to inhibit JAK isoform specific phosphorylation of selected substrates. IL-2 stimulated STAT5 phosphorylation on Tyr694 was used to assess JAK1/3 compound selectivity. GM-CSF stimulated STAT5 phosphorylation on Tyr694 was used to assess JAK2 compound selectivity. IFNγ stimulated STAT1 phosphorylation on Tyr701 was used to assess JAK1/2 compound selectivity. IL-12 stimulated STAT4 phosphorylation on Tyr693 was used to assess JAK2/TYK2 compound selectivity. For all four assays, human PBMC from frozen stocks were thawed, pelleted, resuspended in complete media (90% RPMI, 10% heat inactivated FBS, 10 mM HEPES, 47 μM 2-ME, pen/strep) and placed in wells of a 96 well V-bottom plate at 200,000 per well in 120 μl complete media. Compounds were added as 15 μl per well of 10× working stock solutions in complete media with 1% DMSO (or medium with 1% DMSO for controls) and placed on a plate shaker in a 37° C. incubator with 5% CO2 for 1 hour with gentle shaking (setting of 3). Stimulation used the addition of soluble cytokines. For the JAK1/3 phospho-STAT5 assay, 15 μl of 10× working stock recombinant human IL-2 was added to a final concentration of 25 ng/ml. For the JAK2 phospho-STAT5 assay, 15 μl of 10× working stock recombinant human GM-CSF was added to a final concentration of 5 ng/ml. For the JAK1/2 phospho-STAT1 assay, 15 μl of 10× working stock of recombinant human IFNγ was added to a final concentration of 10 ng/ml. For the JAK2/TYK2 phospho-STAT4 assay, 15 μl of 10× working stock of recombinant human IL-12 was added to a final concentration of 1.7 ng/ml. Plates were then placed back on the plate shaker in the incubator for an additional 5, 5, 10, and 25 minutes respectively upon which the plates were removed from the incubator, sealed with a plate sealer and the cells pelleted at 400×g for 5 minutes. After pelleting, the media was removed by aspiration and the cells were lysed in assay specific cell lysis buffer. The levels of phospho-STAT5 were determined using a Phospho (Tyr694)STAT5a,b Whole Cell Lysate kit from Meso Scale Discovery. Levels of phospho-STAT1 were determined using a CST-PathScan Phospho-STAT1 (Tyr701) Sandwich ELISA kit. Levels of phospho-STAT4 were determined using a Phospho-STAT4 (Tyr693) Whole Cell Lysate kit from Meso Scale Discovery.

[2] = tested on: IFNγ stimulated STAT1 phosphorylation on Tyr701 (JAK1/2); assay: JAK1/2 cellular target modulation: IFNγ stimulated phospho-STAT1 in human PBMC; type: cell-based; details: IFNγ 10 ng/ml, read-out: Infγ-STAT1 IC50
Description: as §1

JAK2 = molecular target: T1, JAK2 (Homo sapiens, UniProt O60674); assay: JAK2 enzyme activity assay (Thermo Fisher Selectscreen, Z-lyte); type: biochemical; details: read-out: JAK2 Inhibition IC50
T1 construct: purchased Thermo Fisher Scientific (SelectScreen service)
T1 sequence (O60674 whole entry): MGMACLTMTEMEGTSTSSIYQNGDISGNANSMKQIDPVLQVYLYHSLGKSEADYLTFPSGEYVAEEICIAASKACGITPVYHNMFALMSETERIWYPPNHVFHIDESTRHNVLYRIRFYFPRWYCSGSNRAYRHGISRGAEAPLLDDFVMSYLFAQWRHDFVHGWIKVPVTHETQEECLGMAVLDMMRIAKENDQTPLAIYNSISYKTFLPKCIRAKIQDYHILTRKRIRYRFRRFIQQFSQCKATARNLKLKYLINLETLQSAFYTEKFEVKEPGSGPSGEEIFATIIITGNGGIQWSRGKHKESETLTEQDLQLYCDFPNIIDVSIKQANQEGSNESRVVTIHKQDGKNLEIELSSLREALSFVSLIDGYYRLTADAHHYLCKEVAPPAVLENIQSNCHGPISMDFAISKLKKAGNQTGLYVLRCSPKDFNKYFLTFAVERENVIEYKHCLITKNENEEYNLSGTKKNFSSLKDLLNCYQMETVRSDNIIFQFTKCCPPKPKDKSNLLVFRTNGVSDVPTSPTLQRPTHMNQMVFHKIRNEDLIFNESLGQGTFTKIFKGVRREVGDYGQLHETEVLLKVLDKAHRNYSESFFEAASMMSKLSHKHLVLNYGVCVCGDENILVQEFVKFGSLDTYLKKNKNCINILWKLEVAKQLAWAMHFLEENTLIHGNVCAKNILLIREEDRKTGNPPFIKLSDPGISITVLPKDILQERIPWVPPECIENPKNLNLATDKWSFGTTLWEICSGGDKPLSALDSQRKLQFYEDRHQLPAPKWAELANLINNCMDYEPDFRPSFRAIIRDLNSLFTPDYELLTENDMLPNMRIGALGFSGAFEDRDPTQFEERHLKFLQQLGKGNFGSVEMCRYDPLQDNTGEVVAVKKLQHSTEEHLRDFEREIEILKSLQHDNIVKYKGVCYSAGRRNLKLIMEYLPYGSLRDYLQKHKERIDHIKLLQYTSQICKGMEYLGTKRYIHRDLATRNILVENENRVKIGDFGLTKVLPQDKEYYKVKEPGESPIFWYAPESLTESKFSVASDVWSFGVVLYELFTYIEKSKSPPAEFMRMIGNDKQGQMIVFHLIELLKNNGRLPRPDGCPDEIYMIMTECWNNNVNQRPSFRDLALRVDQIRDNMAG
Method: (§2) The inhibitory potency of candidate compounds of JAK1, JAK2, and Tyk-2 was done at Thermo Fisher Scientific in their Selectscreen using a Z-lyte assay. Following are the assay details for each enzyme.
JAK2: The 2×JAK2/Tyr 06 mixture is prepared in 50 mM HEPES pH 7.5, 0.01% BRIJ-35, 10 mM MgCl2, 1 mM EGTA. The final 10 μL Kinase Reaction consists of 0.12-0.5 ng JAK2 and 2 μM Tyr 06 in 50 mM HEPES pH 7.5, 0.01% BRIJ-35, 10 mM MgCl2, 1 mM EGTA. After the one hour Kinase Reaction incubation, 5 μL of a 1:128 dilution of Development Reagent A is added.
(§3) Data reduction for JAK1, JAK2 and TYK2 is done the same, independent of the enzyme run. In summary, background signal is defined in the absence of enzyme and uninhibited signal is defined in the presence of vehicle (2% DMSO) alone. Compounds were evaluated in an 11 point dose-response ranging from […] to 0.34 nM. IC50 values of compounds are determined using a 4 parameter logistical fit of emission ratio as a function of the concentration of compound.

JAK1 = molecular target: T2, JAK1 (Homo sapiens, UniProt P23458); assay: JAK1 enzyme activity assay (Thermo Fisher Selectscreen, Z-lyte); type: biochemical; details: read-out: JAK1 Inhibition IC50
T2 construct: purchased Thermo Fisher Scientific (SelectScreen service)
T2 sequence (P23458 whole entry): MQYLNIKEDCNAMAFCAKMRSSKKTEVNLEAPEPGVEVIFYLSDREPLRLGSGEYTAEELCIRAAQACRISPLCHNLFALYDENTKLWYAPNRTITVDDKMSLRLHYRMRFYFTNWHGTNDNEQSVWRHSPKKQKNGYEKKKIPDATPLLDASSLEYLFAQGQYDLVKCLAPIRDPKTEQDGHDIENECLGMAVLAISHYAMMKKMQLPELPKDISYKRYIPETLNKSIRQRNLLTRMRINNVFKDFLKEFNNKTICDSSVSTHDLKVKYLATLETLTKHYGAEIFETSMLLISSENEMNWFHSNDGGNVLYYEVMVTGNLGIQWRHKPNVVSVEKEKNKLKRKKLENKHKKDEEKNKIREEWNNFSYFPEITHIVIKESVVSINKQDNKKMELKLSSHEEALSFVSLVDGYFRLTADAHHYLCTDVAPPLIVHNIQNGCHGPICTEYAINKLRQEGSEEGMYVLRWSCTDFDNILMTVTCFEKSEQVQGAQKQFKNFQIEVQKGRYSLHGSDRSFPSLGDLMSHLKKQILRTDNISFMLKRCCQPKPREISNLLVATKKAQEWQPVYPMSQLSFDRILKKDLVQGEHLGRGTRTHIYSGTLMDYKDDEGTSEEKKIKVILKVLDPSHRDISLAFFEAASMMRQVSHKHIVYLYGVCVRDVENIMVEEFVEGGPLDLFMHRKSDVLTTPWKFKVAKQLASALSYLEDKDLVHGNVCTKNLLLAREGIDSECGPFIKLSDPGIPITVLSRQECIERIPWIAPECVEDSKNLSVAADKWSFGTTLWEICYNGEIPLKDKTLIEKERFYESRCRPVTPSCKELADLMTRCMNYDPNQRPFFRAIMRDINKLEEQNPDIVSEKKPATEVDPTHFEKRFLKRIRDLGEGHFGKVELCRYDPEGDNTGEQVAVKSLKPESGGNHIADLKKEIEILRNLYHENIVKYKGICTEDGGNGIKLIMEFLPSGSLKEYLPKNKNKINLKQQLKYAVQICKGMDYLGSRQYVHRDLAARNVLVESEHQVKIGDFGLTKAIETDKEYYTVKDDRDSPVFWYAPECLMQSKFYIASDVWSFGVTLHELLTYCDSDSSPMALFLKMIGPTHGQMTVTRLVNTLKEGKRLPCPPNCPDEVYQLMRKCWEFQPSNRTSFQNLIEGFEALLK
Method: as §2
JAK1: The 2×JAK-enzyme/Tyr 06 mixture is prepared in 50 mM HEPES pH 6.5, 0.01% BRIJ-35, 10 mM MgCl2, 1 mM EGTA, 0.02% NaN3. The final 10 μL of the Kinase Reaction consists of 21.2-91.5 ng JAK1 and 2 μM Tyr 06 in 50 mM HEPES pH 7.0, 0.01% BRIJ-35, 10 mM MgCl2, 1 mM EGTA, 0.01% NaN3. After the one hour Kinase Reaction incubation, 5 μL of a 1:128 dilution of Development Reagent is added.
as §3

[3] = tested on: IL-2 stimulated STAT5 phosphorylation on Tyr694 (JAK1/3); assay: JAK1/3 cellular target modulation: IL-2 stimulated phospho-STAT5 in human PBMC; type: cell-based; details: IL-2 25 ng/ml, read-out: IL2-STAT5 IC50
Description: as §1

Tyk-2 = molecular target: T3, Tyk-2 (Homo sapiens, UniProt P29597); assay: Tyk-2 enzyme activity assay (Thermo Fisher Selectscreen, Z-lyte); type: biochemical; details: read-out: Tyk-2 Inhibition IC50
T3 construct: purchased Thermo Fisher Scientific (SelectScreen service)
T3 sequence (P29597 whole entry): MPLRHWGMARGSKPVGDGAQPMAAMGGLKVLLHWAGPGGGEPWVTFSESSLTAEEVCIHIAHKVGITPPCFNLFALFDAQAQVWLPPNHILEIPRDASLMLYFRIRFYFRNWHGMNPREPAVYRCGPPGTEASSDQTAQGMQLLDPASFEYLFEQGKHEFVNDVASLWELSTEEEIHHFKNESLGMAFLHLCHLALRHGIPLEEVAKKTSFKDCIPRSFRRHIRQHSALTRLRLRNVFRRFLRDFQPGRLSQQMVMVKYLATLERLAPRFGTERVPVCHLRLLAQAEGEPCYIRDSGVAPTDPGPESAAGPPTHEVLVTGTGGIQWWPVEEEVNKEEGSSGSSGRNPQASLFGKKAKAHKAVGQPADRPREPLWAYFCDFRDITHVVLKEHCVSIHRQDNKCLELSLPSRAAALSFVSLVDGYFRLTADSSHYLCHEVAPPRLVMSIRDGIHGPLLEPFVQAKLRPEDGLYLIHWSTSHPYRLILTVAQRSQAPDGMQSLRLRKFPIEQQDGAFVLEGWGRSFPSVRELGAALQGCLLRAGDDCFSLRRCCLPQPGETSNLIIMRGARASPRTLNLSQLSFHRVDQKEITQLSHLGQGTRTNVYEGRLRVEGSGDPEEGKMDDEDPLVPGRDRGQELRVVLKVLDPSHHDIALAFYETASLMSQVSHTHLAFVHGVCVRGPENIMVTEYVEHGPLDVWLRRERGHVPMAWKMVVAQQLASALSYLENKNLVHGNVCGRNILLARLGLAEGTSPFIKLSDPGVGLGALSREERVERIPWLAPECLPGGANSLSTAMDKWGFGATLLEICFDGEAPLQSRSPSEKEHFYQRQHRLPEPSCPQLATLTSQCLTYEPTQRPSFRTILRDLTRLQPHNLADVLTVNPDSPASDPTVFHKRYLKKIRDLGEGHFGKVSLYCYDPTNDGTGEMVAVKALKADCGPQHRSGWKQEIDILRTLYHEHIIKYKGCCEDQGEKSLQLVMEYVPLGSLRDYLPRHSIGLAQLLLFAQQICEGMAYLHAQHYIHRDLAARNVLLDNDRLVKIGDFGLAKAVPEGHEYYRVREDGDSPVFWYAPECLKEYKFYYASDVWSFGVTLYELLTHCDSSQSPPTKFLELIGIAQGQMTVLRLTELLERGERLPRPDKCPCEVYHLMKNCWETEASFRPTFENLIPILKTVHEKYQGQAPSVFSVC
Method: as §2
TYK2: The 2×TYK2/Tyr 03 mixture is prepared in 50 mM HEPES pH 6.5, 0.01% BRIJ-35, 10 mM MgCl2, 1 mM EGTA, 0.02% NaN3. The final 10 μL Kinase Reaction consists of 3.75-15 ng TYK2 and 2 μM Tyr 03 in 50 mM HEPES pH 7.0, 0.01% BRIJ-35, 10 mM MgCl2, 1 mM EGTA, 0.01% NaN3. After the one hour KinaseReaction incubation, 5 μL of a 1:4096 dilution of Development Reagent A is added.
as §3

JAK3 (a.a. 781-1124) = molecular target: T4, JAK3 (a.a. 781-1124) (Homo sapiens, UniProt P52333); assay: JAK3 enzyme activity assay (SRCtide phosphorylation, Caliper); type: biochemical; details: 1 uM ATP; read-out: JAK3 Inhibition IC50
T4 construct: JAK3 (a.a. 781-1124, ThermoFisher); purchased ThermoFisher
T4 sequence (P52333 781-1124): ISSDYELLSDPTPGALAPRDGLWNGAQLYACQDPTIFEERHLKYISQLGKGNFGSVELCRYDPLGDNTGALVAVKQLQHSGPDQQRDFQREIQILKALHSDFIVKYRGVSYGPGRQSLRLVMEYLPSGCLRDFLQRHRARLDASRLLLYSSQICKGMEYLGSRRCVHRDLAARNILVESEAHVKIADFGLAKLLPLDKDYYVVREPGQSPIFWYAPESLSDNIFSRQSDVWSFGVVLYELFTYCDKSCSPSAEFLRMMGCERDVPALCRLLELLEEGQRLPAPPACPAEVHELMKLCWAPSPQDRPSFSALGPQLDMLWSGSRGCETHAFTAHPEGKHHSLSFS
Method: The activity of JAK3 (a.a. 781-1124, ThermoFisher) was quantified by measuring the phosphorylation of SRCtide (FAM-GEEPLYWSFPAKKK-NH2). Kinase reactions were run in a 384-well Greiner plate with 2% final DMSO concentration under the buffer conditions of 20 mM HEPES, pH 7.5, 10 mM MgCl2, 0.01% BSA, and 0.0005% Tween-20. The kinase reaction components were 2.5 nM JAK3, 1 μM SRCtide peptide and 1 uM ATP. Examples were tested in dose-response starting at […] (11 concentrations, 3-fold serial dilution, duplicate reactions). The reactions were incubated at room temperature for 40 minutes, then stopped by adding a 1:1 volume of 30 mM EDTA in 20 mM HEPES, pH 7.5 (15 mM EDTA final). After the reaction was stopped, the phosphorylated and unphosphorylated peptides were separated and quantified using a Caliper LC3000/EZ-Reader system and HTS Well Analyzer Software (Caliper, A PerkinElmer Company, Hopkinton, Mass.). GraFit (Erithacus Software Ltd., Horley, U.K.) was used to calculate inhibitor potency by fitting dose-response data to the 4-parameter logistical IC50 equation.

Row | Structure (SMILES) | IC50 [1] [nM] | IC50 [2] [nM] | IC50 (JAK2) [nM] | IC50 (JAK1) [nM] | IC50 [3] [nM] | IC50 (Tyk-2) [nM] | IC50 (JAK3 (a.a. 781-1124)) [nM]
1 | Cc1cnc(-c2cnc3[nH]ccc3c2N[C@H]2C[C@@H](NS(=O)(=O)c3cccc(C#N)c3)C2)s1 [Example 74, 3-cyano-N-((1s,3s)-3-((5-(5-methylthiazol-2-yl)-1H-pyrrolo[2,3-b]pyridin-4-yl)amino)cyclobutyl)benzenesulfonamide] | 100 to 1000 | 100 to 1000 | 10 to 100 | ≤ 10 | ≤ 100 | 10 to 100 | ≤ 10
2 | CCCS(=O)(=O)N[C@H]1C[C@@H](Nc2c(-c3nnc(C)o3)cnc3[nH]ccc23)C1 [Example 82, N-((1s,3s)-3-((5-(5-methyl-1,3,4-oxadiazol-2-yl)-1H-pyrrolo[2,3-b]pyridin-4-yl)amino)cyclobutyl)propane-1-sulfonamide] | > 1000 | > 1000 | 10 to 100 | 10 to 100 | 100 to 1000 | 100 to 1000 | 100 to 1000
3 | CCOC(=O)c1cnc2[nH]ccc2c1N[C@H]1C[C@@H](NS(=O)(=O)c2cccc(C#N)c2)C1 [Example 2, cis-Ethyl 4-((3-((3-cyanophenyl)sulfonamido)cyclobutyl)amino)-1H-pyrrolo[2,3-b]pyridine-5-carboxylate] |  | 100 to 1000 | 10 to 100 | ≤ 10 | ≤ 100 | 10 to 100 | 10 to 100
4 | CNC(=O)c1ccnc(-c2cnc3[nH]ccc3c2N[C@H]2C[C@@H](NS(=O)(=O)c3cc(C#N)ccn3)C2)c1 [Example 67, 2-(4-(((1s,3s)-3-((4-cyanopyridine)-2-sulfonamido)cyclobutyl)amino)-1H-pyrrolo[2,3-b]pyridin-5-yl)-N-methylisonicotinamide] |  | > 1000 | 10 to 100 | ≤ 10 | 100 to 1000 | 10 to 100 | 100 to 1000
5 | CCCS(=O)(=O)N[C@H]1C[C@@H](Nc2c(-c3nnco3)cnc3[nH]ccc23)C1 [Example 80, N-((1s,3s)-3-((5-(1,3,4-oxadiazol-2-yl)-1H-pyrrolo[2,3-b]pyridin-4-yl)amino)cyclobutyl)propane-1-sulfonamide] | > 1000 |  | 10 to 100 | 10 to 100 | 100 to 1000 | 100 to 1000 | 10 to 100
6 | CCOC(=O)c1cnc2[nH]ccc2c1NC1CC(NS(=O)(=O)c2cc(C#N)ccn2)C1 (mixture of isomers) [Example 1, ethyl 4-((3-((4-cyanopyridine)-2-sulfonamido)cyclobutyl)amino)-1H-pyrrolo[2,3-b]pyridine-5-carboxylate] |  | > 1000 | 100 to 1000 | 10 to 100 | 100 to 1000 | 100 to 1000 | 10 to 100
7 | CCCS(=O)(=O)N[C@H]1C[C@@H](Nc2c(-c3ncco3)cnc3[nH]ccc23)C1 [Example 65, N-((1s,3s)-3-((5-(1,3-oxazol-2-yl)-1H-pyrrolo[2,3-b]pyridin-4-yl)amino)cyclobutyl)propane-1-sulfonamide] | > 1000 |  | ≤ 10 | ≤ 10 | ≤ 100 | 10 to 100 | 10 to 100
8 | CCOC(=O)c1cnc2[nH]ccc2c1N[C@H]1C[C@H](NS(=O)(=O)c2cc(C#N)ccn2)C1 [Example 4, ethyl 4-(((1r,3r)-3-((4-cyanopyridine)-2-sulfonamido)cyclobutyl)amino)-1H-pyrrolo[2,3-b]pyridine-5-carboxylate] |  |  | 10 to 100 | 10 to 100 | > 1000 | 100 to 1000 | 10 to 100
9 | Cc1nnc(-c2cnc3[nH]ccc3c2N[C@H]2C[C@@H](NS(=O)(=O)c3cc(C#N)ccn3)C2)o1 [Example 83, 4-cyano-N-((1s,3s)-3-((5-(5-methyl-1,3,4-oxadiazol-2-yl)-1H-pyrrolo[2,3-b]pyridin-4-yl)amino)cyclobutyl)pyridine-2-sulfonamide] |  |  | 100 to 1000 | 100 to 1000 |  | > 1000 | > 1000
10 | CCCS(=O)(=O)N[C@H]1C[C@@H](Nc2c(-c3cc(C(=O)NC)ccn3)cnc3[nH]ccc23)C1 [Example 68, N-methyl-2-(4-(((1s,3s)-3-(propylsulfonamido)cyclobutyl)amino)-1H-pyrrolo[2,3-b]pyridin-5-yl)isonicotinamide] |  |  | 100 to 1000 | 10 to 100 | > 1000 | 100 to 1000 | 10 to 100
11 | CCOC(=O)c1cnc2[nH]ccc2c1N[C@H]1C[C@H](NS(=O)(=O)c2cccc(C#N)c2)C1 [Example 3, trans-Ethyl 4-((3-((3-cyanophenyl)sulfonamido)cyclobutyl)amino)-1H-pyrrolo[2,3-b]pyridine-5-carboxylate] |  | 100 to 1000 | 10 to 100 | ≤ 10 | 100 to 1000 | 10 to 100 | 10 to 100
